Where two headings read alike, the source gives them in different places.
Key:
MV4-11 cells [1] = assay: Apoptosis, annexin V flow cytometry; conditions: 20 to 50 nM, dose-dependently, FIG. 1
Experimental: Following this, the percentages of annexin V-positive apoptotic cells were determined by flow cytometry. Values represent the mean±S.E.M. of three experiments.

U937 cells = assay: Apoptosis; assay type: cell-based, human; conditions: 20 to 50 nM, dose-dependently
K562 cells [2] = assay: Cell cycle status, propidium iodide flow cytometry; assay type: cell-based, human; conditions: for % of cells G0/G1 / % of cells G2/M / % of cells S: K562, 24 hours, mean ± S.E.M.
K562 cells [3] = assay: Apoptosis; conditions: 50-100 nM
Experimental: FIG. 2 Analysis of dose effect relationship for AUY922 and LBH589 for the apoptotic effects after 48 hours of exposure was done according to the median effect of Chou and Talalay.

MV4-11 cells [4] = assay: Cell cycle status, propidium iodide flow cytometry; assay type: cell-based, human; conditions: for % of cells G0/G1 / % of cells G2/M / % of cells S: MV4-11, 24 hours, mean ± S.E.M.
primary AML cells = assay: Loss of viability, trypan blue uptake; assay type: cell-based; conditions: Homo sapiens
[5] = system: Bcr-Abl, p-STAT5, p-CrkL, AKT levels in K562 cells; assay: hsp90 client protein levels; assay type: cell-based, human; conditions: 50-100 nM of AUY922
primary CML cells = assay: Loss of viability, trypan blue uptake; assay type: cell-based; conditions: Homo sapiens, 48 h
[6] = system: FLT-3, p-STAT5, AKT, CDK4, hsp70 levels in MV4-11 cells; assay: hsp90 client protein levels; assay type: cell-based, human; conditions: AUY922 alone
[7] = Loss of viability, trypan blue uptake; assay type: cell-based; conditions: human, Normal CD34+ cells
[8] = system: hsp90 chaperone function in CML cells; conditions: previous studies, cited from earlier work

In the case of `CCNC(=O)c1noc(-c2cc(C(C)C)c(O)cc2O)c1-c1ccc(CN2CCOCC2)cc1` [AUY922, 5-(2,4-Dihydroxy-5-isopropyl-phenyl)-4-(4-morpholin-4-ylmethyl-phenyl)-isoxazole-3-carboxylic acid ethylamide], the “induced apoptosis, % of cells” value (MV4-11 cells [1]) was 40-60%, the “induced apoptosis, % of cells” value (U937 cells) was 40-60% and the “% of cells G0/G1” value (K562 cells [2]; 20 nM) was 31.04 ± 3.11%. The “% of cells G2/M” value (K562 cells [2]; 20 nM) was 8.54 ± 1.16%, the “% of cells S” value (K562 cells [2]; 20 nM) was 60.41 ± 2.01% and the “% of cells G0/G1” value (K562 cells [2]; 50 nM) was 61.42 ± 5.30%. The “% of cells G2/M” value (K562 cells [2]; 50 nM) was 4.43 ± 2.78%, the “% of cells S” value (K562 cells [2]; 50 nM) was 34.14 ± 5.01% and the “% of cells G0/G1” value (K562 cells [2]; 100 nM) was 58.30 ± 2.87%. For the same molecule, the “% of cells G2/M” value (K562 cells [2]; 100 nM) was 21.73 ± 2.67%, the “% of cells S” value (K562 cells [2]; 100 nM) was 19.97 ± 0.31% and the “% of cells G0/G1” value (K562 cells [2]; 250 nM) was 58.10 ± 4.47%. The “% of cells G2/M” value (K562 cells [2]; 250 nM) was 21.38 ± 3.07%, the “% of cells S” value (K562 cells [2]; 250 nM) was 20.47 ± 1.54% and the “accumulation in G1 and G2/M phases, decline in S phase” value (K562 cells [2]; K562 cells) was “dose-dependently induced accumulation”. For the same molecule, the “induced apoptosis, % of cells” value (K562 cells [3]) was 30-50%, the “% of cells G0/G1” value (MV4-11 cells [4]; 5 nM) was 62.23 ± 0.33% and the “% of cells G2/M” value (MV4-11 cells [4]; 5 nM) was 6.02 ± 0.74%. The “% of cells S” value (MV4-11 cells [4]; 5 nM) was 31.74 ± 0.42%, the “% of cells G0/G1” value (MV4-11 cells [4]; 10 nM) was 63.54 ± 1.20% and the “% of cells G2/M” value (MV4-11 cells [4]; 10 nM) was 6.30 ± 0.92%. For the same molecule, the “% of cells S” value (MV4-11 cells [4]; 10 nM) was 30.16 ± 0.39%, the “% of cells G0/G1” value (MV4-11 cells [4]; 20 nM) was 85.71 ± 2.14% and the “% of cells G2/M” value (MV4-11 cells [4]; 20 nM) was 5.30 ± 0.71%. The “% of cells S” value (MV4-11 cells [4]; 20 nM) was 8.98 ± 2.41%, the “% of cells G0/G1” value (MV4-11 cells [4]; 50 nM) was 79.57 ± 1.15% and the “% of cells G2/M” value (MV4-11 cells [4]; 50 nM) was 11.96 ± 1.26%. For the same molecule, the “% of cells S” value (MV4-11 cells [4]; 50 nM) was 8.47 ± 2.30%, the “accumulation in G1 and G2/M phases, decline in S phase” value (MV4-11 cells [4]; MV4-11 cells) was “dose-dependently induced accumulation” and the cytotoxicity at 0.02 µM (primary AML cells; 48 h, AML#2, 20 nmol/L AUY922, read-out: % non-viable cells) was 54%. For the same molecule, the cytotoxicity at 0.05 µM (primary AML cells; 48 h, AML#2, 50 nmol/L AUY922, read-out: % non-viable cells) was 58.9%, the cytotoxicity at 0.02 µM (primary AML cells; 48 h, AML#4, 20 nmol/L AUY922, read-out: % non-viable cells) was 43.2% and the cytotoxicity at 0.05 µM (primary AML cells; 48 h, AML#4, 50 nmol/L AUY922, read-out: % non-viable cells) was 50%. It also gave a cytotoxicity at 0.02 µM (primary AML cells; 48 h, AML#5, 20 nmol/L AUY922, read-out: % non-viable cells) of 32.1%, a cytotoxicity at 0.05 µM (primary AML cells; 48 h, AML#5, 50 nmol/L AUY922, read-out: % non-viable cells) of 27.7% and a cytotoxicity at 0.02 µM (primary AML cells; 48 h, AML#6, 20 nmol/L AUY922, read-out: % non-viable cells) of 11.9%. The cytotoxicity at 0.05 µM (primary AML cells; 48 h, AML#6, 50 nmol/L AUY922, read-out: % non-viable cells) was 21.4%, the cytotoxicity at 0.02 µM (primary AML cells; 48 h, AML#7 CD34 enriched, 20 nmol/L AUY922, read-out: % non-viable cells) was 70.1% and the cytotoxicity at 0.05 µM (primary AML cells; 48 h, AML#7 CD34 enriched, 50 nmol/L AUY922, read-out: % non-viable cells) was 70.9%. For the same molecule, the cytotoxicity at 0.02 µM (primary AML cells; AML1, 48 h, AML#1, 20 nmol/L AUY922, read-out: % non-viable cells) was 38.8%, the cytotoxicity at 0.05 µM (primary AML cells; AML1, 48 h, AML#1, 50 nmol/L AUY922, read-out: % non-viable cells) was 45.1% and the cytotoxicity at 0.02 µM (primary AML cells; AML3, 48 h, AML#3, 20 nmol/L AUY922, read-out: % non-viable cells) was 40.1%. The cytotoxicity at 0.05 µM (primary AML cells; AML3, 48 h, AML#3, 50 nmol/L AUY922, read-out: % non-viable cells) was 42.7%, the client protein levels [5] was “depleted Bcr-Abl, p-STAT, p-CrkL and AKT levels” and the cytotoxicity at 0.02 µM (primary CML cells; CML#1, 20 nmol/L AUY922, read-out: % non-viable cells) was 29.1%. The cytotoxicity at 0.05 µM (primary CML cells; CML#1, 50 nmol/L AUY922, read-out: % non-viable cells) was 33.6%, the cytotoxicity at 0.02 µM (primary CML cells; CML#2, 20 nmol/L AUY922, read-out: % non-viable cells) was 9.6% and the cytotoxicity at 0.05 µM (primary CML cells; CML#2, 50 nmol/L AUY922, read-out: % non-viable cells) was 13.9%. For the same molecule, the cytotoxicity at 0.02 µM (primary CML cells; CML#3, 20 nmol/L AUY922, read-out: % non-viable cells) was 21.1%, the cytotoxicity at 0.05 µM (primary CML cells; CML#3, 50 nmol/L AUY922, read-out: % non-viable cells) was 25.3% and the cytotoxicity at 0.02 µM (primary CML cells; CML#4, 20 nmol/L AUY922, read-out: % non-viable cells) was 30.5%. The cytotoxicity at 0.05 µM (primary CML cells; CML#4, 50 nmol/L AUY922, read-out: % non-viable cells) was 32.8%, the client protein levels [6] was “depletion of FLT-3, p-STAT5, AKT, and CDK4 levels” and the hsp70 levels [6] was “induction of hsp70 levels”. It also gave a cytotoxicity at 48 h, 20 nmol/L ([7]; 20 nmol/L AUY922, read-out: % non-viable cells) of 30.8% and a cytotoxicity at 48 h, 50 nmol/L ([7]; 50 nmol/L AUY922, read-out: % non-viable cells) of 31.6%.
Work on `Cc1[nH]c2ccccc2c1CCNCc1ccc(/C=C/C(=O)NO)cc1` [LBH589, N-hydroxy-3-[4-[[[2-(2-methyl-1H-indol-3-yl)-ethyl]-amino]methyl]phenyl]-2E-2-propenamide] yielded a cytotoxicity at 0.05 µM (primary AML cells; 48 h, AML#2, 50 nmol/L LBH589, read-out: % non-viable cells) of 54.7%, a cytotoxicity at 0.05 µM (primary AML cells; 48 h, AML#4, 50 nmol/L LBH589, read-out: % non-viable cells) of 53.8% and a cytotoxicity at 0.05 µM (primary AML cells; 48 h, AML#5, 50 nmol/L LBH589, read-out: % non-viable cells) of 61.8%. It also gave a cytotoxicity at 0.05 µM (primary AML cells; 48 h, AML#6, 50 nmol/L LBH589, read-out: % non-viable cells) of 17.8%, a cytotoxicity at 0.05 µM (primary AML cells; 48 h, AML#7 CD34 enriched, 50 nmol/L LBH589, read-out: % non-viable cells) of 56.7% and a cytotoxicity at 0.05 µM (primary AML cells; AML1, 48 h, AML#1, 50 nmol/L LBH589, read-out: % non-viable cells) of 80.7%. The cytotoxicity at 0.05 µM (primary AML cells; AML3, 48 h, AML#3, 50 nmol/L LBH589, read-out: % non-viable cells) was 46.3%, the cytotoxicity at 0.05 µM (primary CML cells; CML#1, 50 nmol/L LBH589, read-out: % non-viable cells) was 43.3% and the cytotoxicity at 0.05 µM (primary CML cells; CML#2, 50 nmol/L LBH589, read-out: % non-viable cells) was 21.4%. It also gave a cytotoxicity at 0.05 µM (primary CML cells; CML#3, 50 nmol/L LBH589, read-out: % non-viable cells) of 47.8%, a cytotoxicity at 0.05 µM (primary CML cells; CML#4, 50 nmol/L LBH589, read-out: % non-viable cells) of 37.6% and a cytotoxicity at 48 h, 50 nmol/L ([7]; 50 nmol/L LBH589, read-out: % non-viable cells) of 23.3%. For the same molecule, the client protein levels ([8]; CML cells) was “depletion of unmutated or mutant forms of Bcr-Abl, as well as of c-Raf and AKT” and the “hsp90 acetylation and chaperone function” value ([8]; by inhibiting HDAC 6) was “induces acetylation and inhibition of hsp90 chaperone function”.

— US20100069458A1, “COMBINATION OF LBH589 WITH OTHER THERAPEUTIC AGENTS FOR TREATING CANCER” (priority 2007, published 2010)
